From patent publication US9096543B2, “Nuclear transport modulators and uses thereof” (Karyopharm Therapeutics Inc., priority 2012, dated 2015)

Legend:
[1] = tested on: A549 xenograft tumors; experiment: A549 lung carcinoma xenograft model; type: in vivo, CB-17 SCID mice; conditions: cisplatin 5 mg/kg IP (positive control)
Protocol: The A549 cell line was derived from explant culture of alveolar carcinoma tissue from a person. The cells were grown in Ham's F12-K tissue culture media with 10% fetal calf serum and 1% penicillin/streptomycin. Cells were routinely trypsinized and passaged 1:10. Thirty-two (32) female CB-17 SCID mice (Charles River Labs strain code 236), aged 5 to 6 weeks were used with a mean pre-treatment body weight of 16.3 grams. Mice were divided into four (4) groups of eight (8) prior to the initiation of treatment based on tumor volume. On the day of implantation, cells were washed in PBS, trypsinized and resuspended in complete media to a density of 2×10^7 cells/mL prior to being mixed with an equal volume of Matrigel. This mixture was then inoculated subcutaneously into mice in a volume of 0.1 mL using a 23 G needle.
Animal weights and condition were recorded daily, and tumors were measured on Mondays, Wednesdays and Fridays with micro-calipers, and tumor volume was calculated as (length×width×width)/2.
Animals with weight loss of more than 20% of their starting weight were euthanized. Mice with weight loss of more than 15% of their starting weight were not treated again until weight loss recovered to less than 5% of their starting weight. Any animals with a tumor volume of more than 1500 mm^3 were euthanized.
Dosing solutions were prepared fresh on each day of dosing. Compound 2 was supplied as a lyophilized powder containing 69.61% Compound 2 with the balance made up of Pluronic F-68 and PVP K29/32. This was prepared by dissolving the lyophilized powder in sterile water. Cisplatin was dissolved at 5 mg/mL in DMSO and diluted 1:10 in sterile water for injection. All test articles were administered in a volume of 0.1 mL/10 g body weight.
Statistical differences between treatment groups were determined using Mann-Whitney Rank Sum or ANOVA tests with a critical value of 0.05.

[2] = MTT Cell Proliferation Assay (CellTiter 96 AQueous One Solution, MTS); type: cell-based; conditions: human; 72 h treatment; cell line not given; read-out: Cytotoxicity [IC50]
Source text: The CellTiter 96® AQueous One Solution cell proliferation assay (Promega) was used on MM1.S, Jurkat and HCT-116 cells to study the cytotoxic and cytostatic properties of the compounds. The assay is based on the cleavage of the tetrazolium salt, MTS, in the presence of an electron-coupling reagent PES (phenazine ethosulfate). The MTS tetrazolium compound is bioreduced by cells into a colored formazan product that is soluble in tissue culture medium. This conversion is presumably accomplished by NADPH or NADH produced by dehydrogenase enzymes in metabolically active cells. Assays are performed by adding a small amount of the CellTiter 96® AQueous One solution reagent directly to culture wells, incubating for 1-4 hours and then recording the absorbance at 490 nm with a 96-well plate reader. […] The cells were seeded at 5×10^3 to 1.5×10^4 cells (depending on cell type) in each well of 96-well plate in 100 μL of fresh culture medium and adherent cells were allowed to attach for overnight. The stock solutions of the compounds were diluted in cell culture medium to obtain eight concentrations of each drug, ranging from 1 nM to 30 μM and DMSO at less than 1% v/v was used as a negative control. After 72 h of treatment 20 μl of CellTiter 96® AQueous reagent was added into each well of the 96-well assay plates and the plate was incubate at 37° C. for 1-4 hours in a humidified, 5% CO2 atmosphere. Then the absorbance of each well was recorded at 490 nm by using a 96-well plate reader. In most cases the assay was performed in triplicates and the results were presented as half maximal inhibitory concentration (IC50) described below. Optical density versus compound concentration was plotted and analyzed using non linear regression equations (Excel Fit) and the IC50 for each compound was calculated.

[3] = target: T1, CRM1 (Homo sapiens, UniProt O14980); experiment: RevGFP assay: inhibition of CRM1 mediated nuclear export; type: cell-based; conditions: U2OS-RevGFP cells, ~1 hr with compound; read-out: Rev Export [IC50]
T1 construct: endogenous in cells; host or cells: U2OS-RevGFP cells
T1 sequence (O14980 whole entry): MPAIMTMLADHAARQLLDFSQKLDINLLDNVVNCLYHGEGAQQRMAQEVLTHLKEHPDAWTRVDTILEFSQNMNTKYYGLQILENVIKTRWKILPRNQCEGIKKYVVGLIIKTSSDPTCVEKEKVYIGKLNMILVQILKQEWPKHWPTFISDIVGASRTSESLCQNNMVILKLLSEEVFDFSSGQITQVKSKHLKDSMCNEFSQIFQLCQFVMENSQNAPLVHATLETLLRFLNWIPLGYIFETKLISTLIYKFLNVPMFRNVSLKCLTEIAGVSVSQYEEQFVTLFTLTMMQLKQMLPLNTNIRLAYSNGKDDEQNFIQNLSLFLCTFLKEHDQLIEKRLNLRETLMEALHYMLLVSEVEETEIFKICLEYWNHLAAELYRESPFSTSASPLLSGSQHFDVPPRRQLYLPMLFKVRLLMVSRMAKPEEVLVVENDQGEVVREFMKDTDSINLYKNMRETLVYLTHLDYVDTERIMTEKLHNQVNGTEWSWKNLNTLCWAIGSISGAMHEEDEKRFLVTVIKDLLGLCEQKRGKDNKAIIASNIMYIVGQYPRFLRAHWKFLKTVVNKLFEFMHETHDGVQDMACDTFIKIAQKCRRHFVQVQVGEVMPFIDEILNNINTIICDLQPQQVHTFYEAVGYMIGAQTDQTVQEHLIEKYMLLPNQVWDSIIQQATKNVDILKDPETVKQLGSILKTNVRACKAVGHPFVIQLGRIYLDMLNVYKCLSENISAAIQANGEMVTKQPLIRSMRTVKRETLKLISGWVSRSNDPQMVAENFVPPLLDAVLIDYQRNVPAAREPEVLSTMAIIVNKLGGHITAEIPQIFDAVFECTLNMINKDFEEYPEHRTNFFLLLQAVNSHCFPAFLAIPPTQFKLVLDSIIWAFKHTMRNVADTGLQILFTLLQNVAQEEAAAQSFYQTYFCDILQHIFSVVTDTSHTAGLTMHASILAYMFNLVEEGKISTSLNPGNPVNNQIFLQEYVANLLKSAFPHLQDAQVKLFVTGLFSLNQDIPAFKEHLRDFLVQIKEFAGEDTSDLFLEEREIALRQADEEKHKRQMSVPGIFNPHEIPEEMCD
Protocol: The inhibition of CRM1 mediated nuclear export by compounds of the invention was determined. The inhibitory activity of compounds for the CRM1 protein was determined in the RevGFP assay.
Experimental protocol: Rev is a protein from human immunodeficiency virus type 1 (HIV-1) and contains a nuclear export signal (NES) in its C-terminal domain and a nuclear localization signal (NLS) in its N-terminal domain. Nuclear export of Rev protein is dependent on the classical NES/CRM1 pathway (Neville et al, 1997, Kau et al, 2003). Nuclear accumulation of Rev is observed in cells treated with specific inhibitors of CRM1, such as LMB (Kau et al, 2003). In this assay, U2OS-RevGFP cells are seeded onto clear-bottom, black, 384-well plates the day before the experiment. Compounds are serially diluted 1:2 starting from 40 μM in a separate 384-well plate in DMEM, and then transferred onto cells. Cells are incubated with compound for ˜1 hr before fixation with 3.7% formaldehyde and nuclei staining with Hoechst 33258. The amount of GFP in cell nuclei was measured and compound IC50s were determined (Kau et al, 2003).

[4] = Pharmacokinetics (plasma AUC) in mice; type: in vivo; conditions: mouse, 10 mg/kg po
Protocol: Blood was collected from mice (N=3) to contribute to the total of 10 time points (pre-dose, 5 min, 15 min, 30 min, 1 hour, 2 hours, 4 hours, 8 hours, 12 hours and 24 hours post dose). Mice were bled on a rotating basis, each mouse contributing 3 time points to the blood collection. At the designated time points, animals were anaesthetized under isoflurane, and approximately 110 μL of blood per time point was collected via retro-orbital puncture into pre-cooled K2EDTA (anti-coagulant) tubes. Blood samples were put on wet ice and centrifuged (2000 g, 5 min at 4° C.) to obtain plasma within 30 minutes of sample collection. All samples were stored frozen at approximately −80° C. until analysis. Prior to analysis, samples were mixed with internal standard (dexamethasone) in acetonitrile, vortexed, centrifuged, and supernatant was injected for analysis. Concentration of compounds in plasma was determined using LC-MS-MS instrumentation (API 4000, Triple Quadruple with electrospray ionization; Acuity Ultra Performance Liquid Chromatography column C18, with MeOH and formic acid as organic solvents). PK parameters including but not limited to Tmax, Cmax, t1/2, AUClast, AUCinf were calculated using WinNonlin Professional 6.2 software package, non-compartmental pharmacokinetic model NCA200.

[5] = Pharmacokinetics (plasma AUC) in rats; type: in vivo; conditions: rat, 10 mg/kg po
[6] = tested on: IMQ-induced psoriasis; experiment: Imiquimod (IMQ)-induced dermal inflammation/psoriasis model (Study 2); type: in vivo, BALB/c mice; conditions: Compound 2 2.5 mg/kg sc, cyclophosphamide 10 mg/kg oral
Protocol: Forty (40) male BALB/c mice (Biological E Limited, Hyderabad (CPCSEA registration number: 36/99/CPCSEA)) were divided into four (4) groups consisting of ten (10) mice each. Animals were randomized based on their body weight. The groups were designated as Group-I (Nave), Group-II (IMQ; vehicle (PEG 400 and HPBCD)), Group-III (IMQ; Compound 2 (2.5 mg/kg)) and […] (IMQ; cyclophosphamide (10 mg/kg)).
A small area on the dorsum of each mouse was shaved, ensuring that these areas were of equal size/area. Psoriasis was induced in Groups II to IV by topical application of 50 mg of IMQ cream daily from Day 1 to Day 6 on the dorsum of the animals. On Day 1 and Day 2 of the study, four hours after topical application of IMQ, Compound 2 or positive control (cyclophosphamide) or vehicle were administered to animals in pertinent groups. Of note, animals in Group II and Group III were subjected to subcutaneous injections, whereas animals in Group IV received oral administration. The Compound 2, vehicle and cyclophosphamide treatment was terminated on Day 2. These groups of animals were maintained on daily IMQ treatments until Day 6. On Day 7, the psoriasis-induced animals were re-randomized into 3 groups consisting of 10 animals each based on Cumulative Disease Activity Index (CDAI). From Day 7 to Day 9, animals received vehicle or positive control or Compound 2. Of note, on these days animals were not treated with IMQ. From Day 10 to Day 14, the animals were treated alternatively with IMQ (Days 10, 12 and 14), or vehicle, positive control or Compound 2 (Days 11, 13).
All animals were observed daily for a period of […] for gross observations, body weight and feed and water intake. On Days 1 and 2, scorings of erythema, scaling, folding and thickening of skin were recorded 2 hours after administration of vehicle/positive control/test compounds, and on Days 3 to 14 scorings were recorded 4 hours after IMQ application, or administration of positive control, vehicle or Compound 2.
Vehicle was prepared by dissolving 40 mg of HPBCD in 70.0 mL of distilled water. Compound 2 was prepared by dissolving 3.59 mg in 0.5% PVP and 0.5% Pluronic. Cyclophosphamide was prepared by dissolving 500 mg of CMC in 100 mL distilled water.
The experimental results shown in Table 10 are expressed as mean±SEM. Data was assessed using one-way ANOVA, and post hoc analysis was performed using Dunnett's test.

[7] = Brain to plasma ratio (B:P) in rats; type: in vivo; conditions: 10 mg/kg po
Protocol: Brain tissue following collection was rinsed with cold saline, dried on filter paper, weighed and snap-frozen by placing on dry ice. All samples were stored frozen at approximately −80° C. until analysis. […] Plasma samples were treated with the identical method (except homogenization step) and concentration of compound in either matrix was calculated based on the generated standard curves.

| SMILES | IC50 at 72 h [2] [nM] | IC50 [3] [nM] | AUC(0-inf) [5] [ng·h/mL] | also measured |
| --- | --- | --- | --- | --- |
| N.N.[Cl][Pt][Cl] [cisplatin, reference compound] | – | – | – | tumor volume AUC compared to vehicle control (one-way ANOVA) [1]: no statistically significant reduction in tumor growth |
| O=C(/C=C\n1cnc(-c2cc(C(F)(F)F)cc(C(F)(F)F)c2)n1)N1CC(F)(F)C1 [Compound X-3, reference compound] | < 1000 | < 1000 | 12300 | AUC(0-inf) [4]: 12300 ng·h/mL |
| O=P1(N(CCCl)CCCl)NCCCO1 (stereo not drawn) [cyclophosphamide, reference compound] | – | – | – | Rate of reduction of DAI, % change from 1st dose administration ([6]; Day 7, pre-IMQ/drug administration readings): 0.0%; Rate of reduction of DAI, % change from 1st dose administration ([6]; Day 10, 4 hr. post-IMQ/drug administration readings): −86.0% |
| CC(C)OC(=O)/C=C\n1cnc(-c2cc(OC(C)C)cc(C(F)(F)F)c2)n1 [Compound X-2] | < 1000 | < 1000 | 68.3 | B:P [7]: moderate brain to plasma ratio; Kp at 2 h ([7]; rat, brain and plasma): 1.27 |
